Assay results taken from patent US10124004B2, “Pyrido[3,4-d]pyrimidine derivative and pharmaceutically acceptable salt thereof” (Teijin Pharma Limited, priority 2015, dated 2018).
Where two headings read alike, the source gives them in different places.

Experiments:
CDK4/cyclin D3 = target: T1, CDK4/cyclin D3 (Homo sapiens, UniProt P11802); assay: Human CDK4/cyclin D3 inhibitory activity (QS S Assist CDK4/Cyclin D3_FP Kit, IMAP fluorescence polarization); format: biochemical
T1 construct: purchased Carna Biosciences, Inc. QS S Assist CDK4/Cyclin D3_FP Kit
In short: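 Percent inhibition, relative to DMSO with and without enzyme, was curve-fitted to give IC50 from polarization (ex 485, em 535 nm). The 45-min room-temperature reaction used 12.5-25 ng/well enzyme, kit ATP/substrate/metal mix, and HEPES pH 7.4 buffer with Tween20 and DTT, followed by 30-min IMAP binding in the dark.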

CDK2/cyclin A2 = target: T2, CDK2/cyclin A2 (Homo sapiens, UniProt P24941); assay: Human CDK2/cyclin A2 inhibitory activity (QS S Assist CDK2/Cyclin A2_FP Kit, IMAP fluorescence polarization); format: biochemical
T2 construct: purchased Carna Biosciences, Inc. QS S Assist CDK2/Cyclin A2_FP Kit
In short: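 Kinase activity read as fluorescence polarization (485/535 nm) after phosphorylated fluorescent substrate binds IMAP reagent (30 min, RT, dark). Enzyme (2.5 ng/well) reacted 60 min at RT with ATP/substrate/metal in HEPES pH 7.4 buffer with Tween 20 and DTT; no-enzyme wells define 0% activity; IC50 by curve fit.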

[1] = 50% inhibitory concentration against CDK4/cyclin D3, given as class symbol
[2] = 50% inhibitory concentration against CDK2/cyclin A2, given as class symbol
[3] = Human CDK4/cyclin D3 inhibitory activity, read-out: CDK4 Activity symbol
[4] = Human CDK2/cyclin A2 inhibitory activity, read-out: CDK2 Activity symbol

T1 sequence (P11802 whole entry): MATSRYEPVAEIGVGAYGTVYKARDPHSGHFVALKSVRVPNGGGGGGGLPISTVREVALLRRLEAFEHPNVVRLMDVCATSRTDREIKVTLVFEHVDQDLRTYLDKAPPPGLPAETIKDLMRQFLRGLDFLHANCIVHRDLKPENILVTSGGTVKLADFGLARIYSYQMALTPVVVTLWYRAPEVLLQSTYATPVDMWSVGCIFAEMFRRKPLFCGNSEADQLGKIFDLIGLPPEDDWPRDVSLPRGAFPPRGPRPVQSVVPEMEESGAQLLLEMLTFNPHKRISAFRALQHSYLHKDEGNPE
T1 sequence (P30281 whole entry partner): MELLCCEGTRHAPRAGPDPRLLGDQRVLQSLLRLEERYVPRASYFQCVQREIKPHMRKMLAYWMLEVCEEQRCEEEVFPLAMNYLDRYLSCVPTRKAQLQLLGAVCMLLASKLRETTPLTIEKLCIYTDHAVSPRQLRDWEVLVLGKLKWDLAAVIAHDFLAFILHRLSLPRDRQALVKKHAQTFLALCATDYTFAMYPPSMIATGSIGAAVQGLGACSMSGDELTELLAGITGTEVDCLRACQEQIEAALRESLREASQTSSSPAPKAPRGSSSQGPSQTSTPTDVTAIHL

Row | Compound | IC50 (CDK4/cyclin D3; [1]) [nM] | IC50 (CDK2/cyclin A2; [2]) [nM] | IC50 (CDK4/cyclin D3; [3]) [nM] | IC50 (CDK2/cyclin A2; [4]) [nM]
1 | COC[C@H](C)Nc1nc([C@@H](C)O)c(Cl)c2cnc(Nc3ccc(N4CCNCC4=O)cn3)nc12 [Compound 756] | 10 to 100 | ≥ 100 |  | 
2 | O=C(O)[C@H]1CC[C@H](Nc2nc(C(F)F)cc3cnc(Nc4ccc(N5CCNCC5)nn4)nc23)CC1 [Compound 384] |  |  | 10 to 100 | ≥ 100
3 | CC(C)Nc1nc(C(F)F)cc2cnc(Nc3ccc(CN4CCNC(C)(C)C4)cn3)nc12 [Compound 174] |  |  | < 10 | 10 to 100
4 | CO[C@H](C)c1cc2cnc(Nc3ccc(CN4CCN(C5COC5)CC4)cn3)nc2c(NC(C)C)n1 [Compound 681] | 10 to 100 | ≥ 100 |  | 
5 | C[C@@H](O)c1cc2cnc(Nc3ccc(OC[C@H]4CCCN4)cn3)nc2c(N[C@H]2CCCOC2)n1 [Compound 783] | < 10 | ≥ 100 |  | 
6 | COCC(C)(C)Nc1nc([C@@H](C)O)cc2cnc(Nc3ccc(CN4CCOCC4=O)cn3)nc12 [Compound 198] |  |  | 10 to 100 | ≥ 100
7 | CC(C)Nc1nc(C2CCCO2)cc2cnc(Nc3ccc(N4CCNCC4)cn3)nc12 (stereo not drawn) [Compound 993] | < 10 | ≥ 100 |  | 
8 | CC(C)Nc1nc(C(F)F)cc2cnc(Nc3ccc(CN4CCN(S(C)(=O)=O)CC4)cn3)nc12 [Compound 115] |  |  | < 10 | ≥ 100
9 | CC(C)Nc1nc(C(C)O)cc2cnc(Nc3ccc(N4CCC(N(C)C)C(F)C4)nn3)nc12 (stereo not drawn) [Compound 621] |  |  | < 10 | ≥ 100
10 | CO[C@H](C)c1cc2cnc(Nc3ccc(C(=O)N4CCNCC4)cn3)nc2c(NC(C)C)n1 [Compound 389] |  |  | < 10 | 10 to 100
11 | CN(C)CCN1CCc2nc(Nc3ncc4cc(C5(C)COC5)nc(N[C@H]5CC[C@H](O)CC5)c4n3)ccc2C1 [Compound 1182] | < 10 | ≥ 100 |  | 
12 | CC(C)Nc1nc(C2CCOC2)cc2cnc(Nc3ccc4c(n3)CCNC4)nc12 (stereo not drawn) [Compound 885] | < 10 | ≥ 100 |  | 
13 | CCNC(=O)NCc1ccc(Nc2ncc3cc(C(F)F)nc(NC(C)C)c3n2)nc1 [Compound 186] |  |  | 10 to 100 | ≥ 100
14 | CC(C)Nc1nc([C@@H](C)O)cc2cnc(Nc3ccc(N4CC5(CNC5)C4)nn3)nc12 [Compound 562] |  |  | < 10 | ≥ 100
15 | CC(C)Nc1nc([C@@H](C)O)cc2cnc(Nc3ccc(N4CCOCC4=O)cn3)nc12 [Compound 804] | < 10 | ≥ 100 |  | 
16 | CO[C@H](C)c1cc2cnc(Nc3ccc(-c4cccnc4)cn3)nc2c(NC(C)C)n1 [Compound 331] |  |  | ≥ 100 | ≥ 100
17 | CC(C)Nc1nc(C(F)F)cc2cnc(Nc3ccc(N4CCC(O)CC4)nn3)nc12 [Compound 171] |  |  | < 10 | 10 to 100
18 | CCCNc1nc([C@@H](C)O)cc2cnc(Nc3ccc(CN4CCC(O)CC4)cn3)nc12 [Compound 1022] | < 10 | ≥ 100 |  | 
19 | C[C@@H](O)c1cc2cnc(Nc3ccc(CN4CCNCC4)cn3)nc2c(NC2(C(=O)O)CCCC2)n1 [Compound 325] |  |  | 10 to 100 | ≥ 100
20 | CCO[C@H](C)c1cc2cnc(Nc3ccc(N4CCNCC4)nn3)nc2c(NC(C)C)n1 [Compound 310] |  |  | < 10 | ≥ 100
21 | CC(C)Nc1nc(C(F)F)cc2cnc(Nc3ccc(CC(=O)O)cn3)nc12 [Compound 133] |  |  | 10 to 100 | ≥ 100
22 | CC(C)Nc1nc(C(F)F)cc2cnc(Nc3ccc(N4CCC(C(C)(C)O)CC4)nn3)nc12 [Compound 191] |  |  | < 10 | 10 to 100
23 | CC(C)Nc1nc(C(F)F)cc2cnc(Nc3ccc(OCCCN4CCCC4=O)cn3)nc12 [Compound 123] |  |  | 10 to 100 | ≥ 100

Row | Compound | IC50 (CDK4/cyclin D3; [1]) [nM] | IC50 (CDK2/cyclin A2; [2]) [nM] | IC50 (CDK4/cyclin D3; [3]) [nM] | IC50 (CDK2/cyclin A2; [4]) [nM]
24 | CC(C)Nc1nc(C(C)O)cc2cnc(Nc3ccc(C4CNCCO4)cn3)nc12 (single isomer, unassigned) [Compound 735] | < 10 | ≥ 100 |  | 
25 | CO[C@H](C)c1cc2cnc(Nc3ccc(N4CCNCC4)c(C)n3)nc2c(NC(C)C)n1 [Compound 925] | < 10 | ≥ 100 |  | 
26 | CC(C)Nc1nc([C@@H](C)O)cc2cnc(Nc3ccc(CN4CCC[C@@H](O)C4)cn3)nc12 [Compound 1196] | < 10 | ≥ 100 |  | 
27 | CC(C)Nc1nc([C@@H](C)O)cc2cnc(Nc3ccc(N4CCN(C5COC5)CC4)nn3)nc12 [Compound 682, (R)-1-(8-(isopropylamino)-2-((6-(4-(oxetan-3-yl)piperazin-1-yl)pyridazin-3-yl)amino)pyrido[3,4-d]pyrimidin-6-yl)ethanol] | < 10 | ≥ 100 |  | 
28 | CN(C)CCN1CCc2nc(Nc3ncc4cc(C5CCOC5)nc(N[C@H]5CCCOC5)c4n3)ccc2C1 (stereo partly drawn) [Compound 1178] | < 10 | ≥ 100 |  | 
29 | OCCN1CCN(Cc2ccc(Nc3ncc4cc(C5CCOC5)nc(N[C@H]5CCCOC5)c4n3)nc2)CC1 (stereo partly drawn) [Compound 1011] | < 10 | ≥ 100 |  | 
30 | CNCC(F)COc1ccc(Nc2ncc3cc([C@@H](C)OC)nc(NC(C)C)c3n2)nc1 (stereo partly drawn) [Compound 509] |  |  | < 10 | ≥ 100
31 | CC(C)Nc1nc([C@@H](C)O)cc2cnc(Nc3ccc(N4CCNC[C@H]4C)cn3)nc12 [Compound 985] | < 10 | ≥ 100 |  | 
32 | COCC(C)(C)Nc1nc([C@@H](C)O)cc2cnc(Nc3ccc(N4CC[C@H](O)CC4=O)cn3)nc12 [Compound 268] |  |  | 10 to 100 | ≥ 100
33 | CO[C@H](C)c1cc2cnc(Nc3ccc(N4CCN(CCO)CC4)nn3)nc2c(NC(C)C)n1 [Compound 249] |  |  | < 10 | ≥ 100
34 | CCCNc1nc(C(F)F)cc2cnc(Nc3ccc(N4CCNCC4=O)cn3)nc12 [Compound 821] | < 10 | 10 to 100 |  | 
35 | CO[C@H](C)c1cc2cnc(Nc3ccc(N4CCCC(O)C4)nn3)nc2c(NC(C)C)n1 (stereo partly drawn) [Compound 286] |  |  | < 10 | ≥ 100
36 | CO[C@H](C)c1cc2cnc(Nc3ccc(N4CCCNCC4=O)cn3)nc2c(NC(C)C)n1 [Compound 492] |  |  | < 10 | 10 to 100
37 | COC(C)c1cc2cnc(Nc3ccc(CN4CCNCC4)cn3)nc2c(NCC2CCCOC2)n1 (stereo not drawn) [Compound 400] |  |  | < 10 | ≥ 100
38 | CC(C)Nc1nc([C@@H](C)O)cc2cnc(Nc3ccc(N4CCNCC4C(F)(F)F)cn3)nc12 (stereo partly drawn) [Compound 764] | < 10 | ≥ 100 |  | 
39 | CC(=O)c1cc2cnc(Nc3ccc(N4CCNCC4)nn3)nc2c(NC(C)C)n1 [Compound 328] |  |  | < 10 | ≥ 100
40 | C[C@@H](O)c1cc2cnc(Nc3ccc(N4CCNCC4=O)cn3)nc2c(NC23CC(C2)C3)n1 [Compound 771] | < 10 | ≥ 100 |  | 
41 | CO[C@H](C)c1cc2cnc(Nc3ccc(N4CCNC[C@@H]4C)nn3)nc2c(NC(C)C)n1 [Compound 371] |  |  | < 10 | ≥ 100
42 | CC(C)Nc1nc(C(C)O)cc2cnc(Nc3ccc(N4CCN(C)CC4)cn3)nc12 (stereo not drawn) [Compound 71] |  |  | < 10 | ≥ 100
43 | O[C@H]1CC[C@H](Nc2nc(C(F)F)cc3cnc(Nc4ccc(CN5CCNCC5)cn4)nc23)CC1 [Compound 386] |  |  | < 10 | ≥ 100
44 | CC(C)Nc1nc(C(C)O)cc2cnc(Nc3ccc(OC4CCC(C(=O)O)CC4)cn3)nc12 (single isomer, unassigned) [Compound 832] | 10 to 100 | ≥ 100 |  | 
45 | CO[C@H](C)c1cc2cnc(Nc3ccc(CN4CCN(CCO)CC4)cn3)nc2c(NC(C)C)n1 [Compound 508] |  |  | < 10 | ≥ 100
